# Experimental data as given in patent US20100298141A1, “SUBSTITUTED PYRIDINE N-OXIDE HERBICIDES” (E. I. DU PONT DE NEMOURS AND COMPANY, priority 2007, published 2010).
# How the values were obtained:
# [1] = tested on: purple nutsedge; assay: Test F preemergence test; assay type: in vivo, Cyperus rotundus; details: scale 0 to 100
# Method in brief: (§1)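 Test chemicals were formulated in a non-phytotoxic solvent mixture with surfactant and applied preemergence to planted seeds or postemergence to sugarcane plants. Plants were kept in a greenhouse for 14 to 21 days, then visually evaluated against controls.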
# [2] = tested on: common ragweed; assay: Test C pre-/postemergence test; assay type: in vivo, Ambrosia elation
# Method in brief: (§2)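 Seeds were planted and treated preemergence with test chemical in a non-phytotoxic solvent mixture containing surfactant. Postemergence applications of the same formulation went onto plants 2 to 18 cm tall (1- to 4-leaf stage). A dash marks no test result.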
# [3] = tested on: yellow nutsedge; assay: Test C pre-/postemergence test; assay type: in vivo, Cyperus esculentus; details: for Plant response rating, Nutsedge, Yellow: 31 g ai/ha, scale 0 to 100 (0 no effect, 100 complete control)
# Method in brief: as §2
# [4] = tested on: broadleaf signalgrass; assay: Test F preemergence test; assay type: in vivo, Brachiaria platyphylla; details: scale 0 to 100; for Signalgrass plant response rating: 125 g ai/ha
# Method in brief: as §1
# [5] = tested on: green foxtail; assay: Test F preemergence test; assay type: in vivo, Setaria viridis; details: scale 0 to 100
# Method in brief: as §1
# [6] = tested on: naked crabgrass; assay: Test F preemergence test; assay type: in vivo, Digitaria nuda; details: scale 0 to 100
# Method in brief: as §1
# [7] = tested on: goosegrass; assay: Test F preemergence test; assay type: in vivo, Eleusine indica; details: scale 0 to 100
# Method in brief: as §1
# [8] = tested on: common ragweed; assay: Test F preemergence test; assay type: in vivo, Ambrosia elation; details: scale 0 to 100; for Ragweed plant response rating: 125 g ai/ha
# Method in brief: as §1
# [9] = tested on: pitted morningglory; assay: Test F preemergence test; assay type: in vivo, Ipomoea lacunosa; details: scale 0 to 100
# Method in brief: as §1
# [10] = tested on: itchgrass; assay: Test F preemergence test; assay type: in vivo, Rottboellia cochinchinensis; details: scale 0 to 100
# Method in brief: as §1
# [11] = tested on: prickly sida; assay: Test F preemergence test; assay type: in vivo, Sida spinosa; details: scale 0 to 100
# Method in brief: as §1
# [12] = tested on: kochia; assay: Test C pre-/postemergence test; assay type: in vivo, Kochia scoparia; details: for Plant response rating, Kochia: 31 g ai/ha, scale 0 to 100 (0 no effect, 100 complete control)
# Method in brief: as §2
# [13] = tested on: bermudagrass; assay: Test F preemergence test; assay type: in vivo, Cynodon dactylon; details: scale 0 to 100
# Method in brief: as §1
# [14] = tested on: crabgrass; assay: Test A pre-/postemergence greenhouse test; assay type: in vivo, Digitaria sanguinalis; details: for Plant response rating, Crabgrass, Large: 0 to 100 scale where 0 is no effect and 100 is complete control; for Crabgrass, Large plant response rating: 0 to 100 scale
# Method in brief: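 Pots of loam–sand soil sown with the test species are sprayed preemergence on the soil surface; emerged seedlings (1–2 leaves, 2–10 cm) are sprayed postemergence at the same time. The vehicle is a non-phytotoxic solvent mixture with surfactant. Injury is scored visually after ~10 d in greenhouse.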
# [15] = 62 g ai/ha, Preemergence, scale 0 to 100
# [16] = 125 g ai/ha, preemergence, scale 0 (no effect) to 100 (complete control)
# [17] = preemergence, 250 g ai/ha, scale 0 (no effect) to 100 (complete control)
# [18] = Postemergence, 500 g ai/ha, 0 is no effect, 100 is complete control
# [19] = Preemergence, 125 g ai/ha, 0 no effect, 100 complete control
compound,measurement,setting,value
CC(Oc1c(C[S+]([O-])c2cccc[n+]2[O-])c(C(F)(F)F)nn1C)C(F)(F)F (stereo not drawn) [Compound 77],"Plant response rating, Purple Nutsedge","[1]; 16 g ai/ha, preemergence",0
same,Purple Nutsedge plant response rating,"[1]; 125 g ai/ha, preemergence",75
same,"Plant response rating, Purple Nutsedge","[1]; Preemergence, 31 g ai/ha",60
same,Ragweed plant response rating,[2]; [15],100
same,Ragweed plant response rating,[2]; [16],100
same,"Plant response rating, Ragweed","[2]; Preemergence, 31 g ai/ha, scale 0 to 100 (0 no effect, 100 complete control)",100
same,Ragweed plant response rating,[2]; [17],100
same,"Nutsedge, Yellow plant response rating",[3]; [15],100
same,"Nutsedge, Yellow plant response rating",[3]; [16],100
same,"Plant response rating, Nutsedge, Yellow",[3]; Preemergence,50
same,"Nutsedge, Yellow plant response rating",[3]; [17],100
same,"Plant response rating, Signalgrass","[4]; 16 g ai/ha, preemergence",0
same,Signalgrass plant response rating,[4]; preemergence,90
same,"Plant response rating, Signalgrass","[4]; Preemergence, 62 g ai/ha",75
same,"Plant response rating, Signalgrass","[4]; Preemergence, 31 g ai/ha",25
same,"Plant response rating, Foxtail, Green","[5]; 16 g ai/ha, preemergence",25
same,"Foxtail, Green plant response rating","[5]; 62 g ai/ha, Preemergence",90
same,"Foxtail, Green plant response rating","[5]; 125 g ai/ha, preemergence",100
same,"Plant response rating, Foxtail, Green","[5]; Preemergence, 31 g ai/ha",65
same,"Plant response rating, Crabgrass, Naked","[6]; 16 g ai/ha, preemergence",0
same,"Crabgrass, Naked plant response rating","[6]; 62 g ai/ha, Preemergence",90
same,"Crabgrass, Naked plant response rating","[6]; 125 g ai/ha, preemergence",100
same,"Plant response rating, Crabgrass, Naked","[6]; Preemergence, 31 g ai/ha",75
same,"Plant response rating, Goosegrass","[7]; 16 g ai/ha, preemergence",20
same,Goosegrass plant response rating,"[7]; 62 g ai/ha, Preemergence",100
same,Goosegrass plant response rating,"[7]; 125 g ai/ha, preemergence",100
same,"Plant response rating, Goosegrass","[7]; Preemergence, 31 g ai/ha",85
same,"Plant response rating, Ragweed","[8]; 16 g ai/ha, preemergence",0
same,Ragweed plant response rating,[8]; preemergence,98
same,"Plant response rating, Ragweed","[8]; Preemergence, 62 g ai/ha",65
same,"Plant response rating, Morningglory","[9]; 16 g ai/ha, preemergence",0
same,Morningglory plant response rating,"[9]; 62 g ai/ha, Preemergence",60
same,Morningglory plant response rating,"[9]; 125 g ai/ha, preemergence",90
same,"Plant response rating, Morningglory","[9]; Preemergence, 31 g ai/ha",35
same,"Plant response rating, Itchgrass","[10]; 16 g ai/ha, preemergence",0
same,Itchgrass plant response rating,"[10]; 62 g ai/ha, Preemergence",65
same,Itchgrass plant response rating,"[10]; 125 g ai/ha, preemergence",95
same,"Plant response rating, Itchgrass","[10]; Preemergence, 31 g ai/ha",35
same,"Plant response rating, Prickly Sida","[11]; 16 g ai/ha, preemergence",20
same,Prickly Sida plant response rating,"[11]; 62 g ai/ha, Preemergence",80
same,Prickly Sida plant response rating,"[11]; 125 g ai/ha, preemergence",80
same,"Plant response rating, Prickly Sida","[11]; Preemergence, 31 g ai/ha",30
same,Kochia plant response rating,[12]; [15],100
same,Kochia plant response rating,[12]; [16],100
same,"Plant response rating, Kochia",[12]; Preemergence,100
same,Kochia plant response rating,[12]; [17],100
same,"Plant response rating, Bermudagrass","[13]; 16 g ai/ha, preemergence",0
same,Bermudagrass plant response rating,"[13]; 62 g ai/ha, Preemergence",80
same,Bermudagrass plant response rating,"[13]; 125 g ai/ha, preemergence",95
same,"Plant response rating, Bermudagrass","[13]; Preemergence, 31 g ai/ha",30
same,"Plant response rating, Crabgrass, Large","[14]; Postemergence, 125 g ai/ha",60
same,"Crabgrass, Large plant response rating",[14]; [18],90
same,"Crabgrass, Large plant response rating",[14]; [19],80
same,"Plant response rating, Crabgrass, Large","[14]; Preemergence, 500 g ai/ha",100
CC(c1c(C(F)(F)F)nn(C)c1OCC(F)(F)F)S(=O)(=O)c1cccc[n+]1[O-] (racemic) [Compound 33],"Plant response rating, Purple Nutsedge","[1]; 16 g ai/ha, preemergence",0
same,Purple Nutsedge plant response rating,"[1]; 62 g ai/ha, Preemergence",85
same,Purple Nutsedge plant response rating,"[1]; 125 g ai/ha, preemergence",85
same,"Plant response rating, Purple Nutsedge","[1]; Preemergence, 31 g ai/ha",35
same,Ragweed plant response rating,[2]; [15],10
same,"Nutsedge, Yellow plant response rating",[3]; [15],100
same,"Plant response rating, Nutsedge, Yellow",[3]; Preemergence,100
same,"Plant response rating, Signalgrass","[4]; 16 g ai/ha, preemergence",15
same,Signalgrass plant response rating,[4]; preemergence,80
same,"Plant response rating, Signalgrass","[4]; Preemergence, 62 g ai/ha",75
same,"Plant response rating, Signalgrass","[4]; Preemergence, 31 g ai/ha",35
same,"Plant response rating, Foxtail, Green","[5]; 16 g ai/ha, preemergence",0
same,"Foxtail, Green plant response rating","[5]; 62 g ai/ha, Preemergence",100
same,"Foxtail, Green plant response rating","[5]; 125 g ai/ha, preemergence",100
same,"Plant response rating, Foxtail, Green","[5]; Preemergence, 31 g ai/ha",50
same,"Plant response rating, Crabgrass, Naked","[6]; 16 g ai/ha, preemergence",75
same,"Crabgrass, Naked plant response rating","[6]; 62 g ai/ha, Preemergence",100
same,"Crabgrass, Naked plant response rating","[6]; 125 g ai/ha, preemergence",100
same,"Plant response rating, Goosegrass","[7]; 16 g ai/ha, preemergence",60
same,Goosegrass plant response rating,"[7]; 62 g ai/ha, Preemergence",98
same,Goosegrass plant response rating,"[7]; 125 g ai/ha, preemergence",100
same,"Plant response rating, Goosegrass","[7]; Preemergence, 31 g ai/ha",95
same,"Plant response rating, Ragweed","[8]; 16 g ai/ha, preemergence",20
same,Ragweed plant response rating,[8]; preemergence,75
same,"Plant response rating, Ragweed","[8]; Preemergence, 62 g ai/ha",60
same,"Plant response rating, Ragweed","[8]; Preemergence, 31 g ai/ha",40
same,"Plant response rating, Morningglory","[9]; 16 g ai/ha, preemergence",0
same,Morningglory plant response rating,"[9]; 62 g ai/ha, Preemergence",98
same,Morningglory plant response rating,"[9]; 125 g ai/ha, preemergence",100
same,"Plant response rating, Morningglory","[9]; Preemergence, 31 g ai/ha",15
same,"Plant response rating, Itchgrass","[10]; 16 g ai/ha, preemergence",25
same,Itchgrass plant response rating,"[10]; 62 g ai/ha, Preemergence",80
same,Itchgrass plant response rating,"[10]; 125 g ai/ha, preemergence",100
same,"Plant response rating, Itchgrass","[10]; Preemergence, 31 g ai/ha",40
same,"Plant response rating, Prickly Sida","[11]; 16 g ai/ha, preemergence",25
same,Prickly Sida plant response rating,"[11]; 62 g ai/ha, Preemergence",90
same,Prickly Sida plant response rating,"[11]; 125 g ai/ha, preemergence",100
same,"Plant response rating, Prickly Sida","[11]; Preemergence, 31 g ai/ha",90
same,Kochia plant response rating,[12]; [15],100
same,"Plant response rating, Kochia",[12]; Preemergence,100
same,"Plant response rating, Bermudagrass","[13]; 16 g ai/ha, preemergence",40
same,Bermudagrass plant response rating,"[13]; 62 g ai/ha, Preemergence",70
same,Bermudagrass plant response rating,"[13]; 125 g ai/ha, preemergence",100
same,"Plant response rating, Bermudagrass","[13]; Preemergence, 31 g ai/ha",60
same,"Crabgrass, Large plant response rating","[14]; Postemergence, 125 g ai/ha, 0 is no effect, 100 is complete control",90
same,"Crabgrass, Large plant response rating",[14]; [18],90
same,"Crabgrass, Large plant response rating",[14]; [19],90
same,"Plant response rating, Crabgrass, Large","[14]; Preemergence, 500 g ai/ha",100
